Earlier results, collected in US20090285878A1, “Compositions and methods for stabilizing liposomal drug formulations” (Tekmira Pharmaceuticals Corporation, priority 2004, published 2009).

Lactone hydrolyzed (above pH 9): more than 95% | Open (carboxylate) form of lactone ring (below pH 4): no open form is present
SMILES: CC[C@@]1(O)C(=O)OCc2c1cc1n(c2=O)Cc2cc3c(CN(C)C)c(O)ccc3nc2-1 [Topotecan]
